Test results reported in the supplement of paper PMC4237247.

Experiments:
HeLa [1] = assay: cell viability IC50 (CellTiter-Glo, 72 h); higher = less potent
Experimental: (§1)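 HeLa cells were treated with a titration of each re-synthesised mitotic inhibitor. Mitotic arrest IC50 comes from a 20 h titration (190 pM to 10 uM) read as % G2/M by Vybrant DyeCycle Green cell cycle profiling on an Acumen cytometer. Cell viability IC50 comes from a 72 h titration (12.2 nM to 100 uM) read by CellTiter-Glo ATP luminescence, with curves fitted in CDD software. The maximal % of cells arrested in mitosis within the titration is also reported.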

HeLa [2] = assay: mitotic arrest IC50 (G2/M DNA content, 20 h); higher = less potent
Experimental: as §1

HeLa [3] = assay: maximal percent of cells arrested in mitosis within titration; higher = stronger mitotic arrest; details: 20 h
Experimental: as §1

SMILES	cell viability IC50 (HeLa [1])	mitotic arrest IC50 (HeLa [2])	maximal percent (HeLa [3])
COC(=O)Nc1nc2cc(C(=O)c3cccs3)ccc2[nH]1 [Nocodazole]	45.6 nM	129 nM	68.5%
COC(=O)Nc1nc2cc(C(=O)c3ccccc3)ccc2[nH]1 [Mebendazole]	222 nM	202 nM	76.6%
COC(=O)Nc1nc2cc(Sc3ccccc3)ccc2[nH]1 [Fenbendazole]	389 nM	279 nM	62.5%
CCN(CC)CCN1C(=O)C(=O)C(=C(O)c2ccccc2)C1c1ccccc1F (stereo not drawn)	6630 nM	4780 nM	55.8%
COc1cc(-c2onc3ccc(Cl)cc23)cc(OC)c1OC	470 nM	539 nM	54.8%
CC(=O)O[C@H]1C(=O)[C@@]2(C)[C@H]([C@H](OC(=O)c3ccccc3)[C@]3(O)C[C@H](OC(=O)[C@H](O)[C@@H](NC(=O)c4ccccc4)c4ccccc4)C(C)=C1C3(C)C)[C@]1(OC(C)=O)CO[C@@H]1C[C@@H]2O [Taxol]	27.3 nM	37.1 nM	74%
O=C(O)c1ccccc1SC1CC(=O)N(c2ccc(Br)cc2)C1=O (stereo not drawn)	2270 nM	2650 nM	70.4%
O=c1[nH]c(/C=C/c2ccccc2F)nc2ccccc12	720 nM	285 nM	49.9%
CC(=O)Nc1ccc(Nc2nc(-c3c(C)nc4ccccn34)cs2)cc1	121 nM	88.5 nM	65.3%
O=C(CSc1nc2ccc([N+](=O)[O-])cc2s1)c1ccc(Cl)cc1	12500 nM	9120 nM	61.7%
O=c1[nH]c(/C=C/c2ccccc2)nc2ccccc12	1160 nM	1350 nM	61%
